How the values were obtained:
Format in all cases: cell-based
mouse β-cells [1] = experiment: Capacitance measurement of exocytosis, standard whole-cell patch, inositol phosphate in the pipette-filling solution; design: dose or concentration left out as unconfirmed; conditions: at InsP7; single depolarization from −70 mV to zero
[2] = system: whole-cell Ca2+ current in mouse β-cells; experiment: Whole-cell Ca2+ current (integrated Ca2+ current) during depolarization train; conditions: 3 μM in the pipette-filling solution
Procedure: FIG. 3. InsP7 dose-dependently promotes Ca2+-dependent exocytosis. Individual mouse β-cells were subjected to a train of four 500-ms depolarizations using the standard whole-cell patch configuration. (A) Exocytosis was observed under control conditions and in the presence of 3 μM 5-InsP7 in the pipette-filling solution. 5-InsP7 was allowed to diffuse into the cell for 2 min before initiation of the experiment. (B) Histogram summarizing the average increases in cell capacitance plotted against the individual depolarizations as well as the total increases in cell capacitance at the end of the train in the absence or presence of 3 μM 5-InsP7 in the pipette-filling solution. (C) Histogram showing integrated Ca2+ current (QCa) plotted against the individual depolarizations in the absence or presence of 3 μM InsP7 in the pipette-filling solution. (D) Concentration dependence of stimulatory action of 5-InsP7 on exocytosis evoked by a single membrane depolarization from −70 mV to zero. The curve represents a least-squares fit of the mean data points to the Hill equation. […]
Cells expressing EGFP were selected for capacitance measurements. Exocytosis was monitored as changes in cell capacitance using either the perforated patch or standard whole-cell configuration of the patch-clamp technique and an EPC9 patch-clamp amplifier (Heka Elektronik, Lambrecht/Pfalz, Germany). […]

mouse β-cells [3] = experiment: Capacitance measurement of exocytosis, standard whole-cell patch, inositol phosphate in the pipette-filling solution
Procedure: Cells expressing EGFP were selected for capacitance measurements. Exocytosis was monitored as changes in cell capacitance using either the perforated patch or standard whole-cell configuration of the patch-clamp technique and an EPC9 patch-clamp amplifier (Heka Elektronik, Lambrecht/Pfalz, Germany). The pipette solution for the perforated patch configuration consisted of (in mM) 76 Cs2SO4, 10 NaCl, 10 KCl, 1 MgCl2, 5 HEPES (pH 7.35 with CsOH) and 0.24 mg/ml amphotericin B. Perforation required a few minutes, and the voltage clamp was considered satisfactory when the Gseries (series conductance) was stable and >35 nS. The pipette solution used for standard whole-cell recordings contained (in mM) 125 Cs-glutamate, 10 CsCl, 10 NaCl, 1 MgCl2, 5 HEPES, 0.05 EGTA, 0.01 GTP and 3 MgATP (pH 7.15 using CsOH). InsP7 isomers were dissolved in the pipette-filling solution to the final concentrations indicated in the text and kept on ice until use. The extracellular medium was composed of (in mM) 118 NaCl, 20 tetraethylammonium-Cl, 5.6 KCl, 1.2 MgCl2, 2.6 CaCl2, 5 HEPES (pH 7.40 using NaOH) and 3 glucose. The stimulation protocol consisted of trains of four 500-ms depolarizations applied at 1 Hz and went from −70 mV to zero mV. The capacitance measurements were performed at 33° C. and the recording chamber was perfused at a rate of 1.5 ml/min.
An important concern is that IP6K's can also use InsP5 as a substrate, generating a different subset of inositol pyrophosphates (4). Therefore, it was necessary to verify that InsP7 is able to directly promote exocytosis. The mammalian InsP7 is the 5-isomer and this was used in detailed experiments (FIG. 3A-D). We also assessed other theoretical isomers of InsP7 (FIG. 3E). To measure the effects of 5-InsP7 on exocytosis, we applied trains of depolarizations in standard whole-cell experiments where the β-cell was dialyzed with a solution containing 3 μM InsP7. Following establishment of the whole-cell configuration, the cell was allowed two minutes equilibration period. A train consisting of four 500 ms depolarizations from −70 mV to 0 mV was then applied to evoke exocytosis. In a series of six experiments, the total increase in cell capacitance amounted to 231+/−12 fF (P<0.01) in the presence of 3 μM InsP7 in the pipette-filling solution and 77+/−11 fF under control conditions, respectively (FIG. 3A). […] The stimulatory action of 5-InsP7 on exocytosis was concentration dependent (FIG. 3D). […] At higher concentrations, 5-InsP7 stimulated exocytosis by 90-410%. Approximating the average data points to the Hill equation yielded a half-maximal stimulatory effect of 1.02 μM and a co-operativity factor of 1.5. […] Thus, 5-InsP7 dose-dependently enhances exocytosis within the physiological range of InsP7 concentrations (1-10 μM). […] This is because the effect of InsP6 on exocytosis can only be discerned under conditions in which endocytosis is inhibited (15). This is not the case for InsP7. […] Our data illustrate that InsP7 and InsP6 have distinct effects on exocytosis.

[4] = in the presence of 5-InsP7 (3 μM)

In the case of `O=P(O)(O)OC1[C@@H](OP(=O)(O)O)[C@H](OP(=O)(O)O)C(OP(=O)(O)OP(=O)(O)O)[C@H](OP(=O)(O)O)[C@H]1OP(=O)(O)O` (stereo partly drawn) [5-InsP7, 5-Diphosphoinositol pentakisphosphate], the “stimulation of exocytosis at low concentration” value (mouse β-cells [1]) is reported as “No stimulation”, the “change in the whole-cell Ca2+ current” value [2] is reported as “not associated with a change” and the “concentration giving maximal stimulation of exocytosis” value (mouse β-cells [3]) is reported as ≥ 10 µM. The “total increase in cell capacitance” value (mouse β-cells [3]; 3 μM InsP7 in the pipette-filling solution, train of four 500 ms depolarizations, six experiments) was 231+/−12 fF, the EC50 (mouse β-cells [3]; Hill equation fit of average data points, read-out: half-maximal stimulatory effect on exocytosis) was 1020 nM and the “maximal stimulation of exocytosis” value (mouse β-cells [3]; at InsP7 ≧10 μM) was > 380%. The stimulation of exocytosis (mouse β-cells [3]; at higher concentrations (above 0.1), single depolarization) was 90-410%, the “capacitance increase evoked by the first depolarization” value (mouse β-cells [3]; [4]) was “strongly stimulated” and the “exocytosis in response to the subsequent 3 depolarizations” value (mouse β-cells [3]; [4]) was “only little effect”. The “exocytotic response in cells with IP6K1 silenced” value (mouse β-cells [3]; whole cell mode, IP6K1 siRNA-treated primary β-cells) was “restore normal exocytotic response”.

In the case of `O=P(O)(O)O[C@H]1[C@H](OP(=O)(O)O)[C@@H](OP(=O)(O)O)[C@H](OP(=O)(O)O)[C@@H](OP(=O)(O)O)[C@H]1OP(=O)(O)O` [InsP6], the “net effect on exocytosis/endocytosis” value (mouse β-cells [3]; same conditions as for InsP7, 10 μM InsP6 in the pipette-filling solution) is reported as “promote endocytosis not exocytosis” and the “selective promotion of secretion from the RRP” value (mouse β-cells [3]; when endocytosis is inhibited (data not shown)) is reported as “does not selectively promote secretion from the RRP”.

Source: patent US7855049B2, “Inositol pyrophosphates determine exocytotic capacity” (BioCrine AB, priority 2007, dated 2010)
